One assay concerns the target T1, GRM4 (Homo sapiens, UniProt Q14833).
T1 construct: purchased Promega (in-house HiBiT-GPCR construct library, NanoBRET)
Nature of the assay: NanoBRET screen HiBiT-GRM4 in HEK293. Type of assay: binding. The protocol:
(§1) Each tracer candidate was screened across the entire library of HiBiT-GPCR constructs using NanoBRET as the detection modality. As depicted in Figure 4A, the specificity of interactions was evaluated through decrease in BRET due to competitive displacement of a bound tracer by excess parental compound. Each tracer was analyzed for binding to each HiBiT-GPCR fusion in the absence and in the presence of competing parental compound. Briefly, HEK293 cells were transfected with HiBiT-GPCR constructs diluted into promoterless DNA to reduce expression and maximize translocation to the cell surface. Each tracer candidate was then screened at concentrations of 1 μM and 0.1 μM across cells expressing these fusions. Cells were treated for 1.5 h with tracer either alone or in the presence of 20 μM competing parental compound (i.e., control). BRET was measured upon addition of purified LgBiT and subsequent complementation with HiBiT genetically fused to a GPCR. The specificity of interactions was assessed through a decrease in BRET signal due to competitive displacement of the bound tracer. To further gauge the robustness of these interactions, the fold response over the control (i.e., BRETtracer/BRETcontrol) was calculated. We chose a 1.5-fold response, which translates to ≥7-fold signal over noise as the minimal threshold required to score an interaction as positive. […]. Below we highlight the screening results obtained for our exemplary fluorescent tracers based on Clozapine, Amitriptyline and AZD1283.
(§2) HiBiT-GPCR DNA constructs were diluted in 10 mM Tris pH 8 to a final concentration of 0.01 μg/μL, arrayed in 96-well plates and stored at −20 °C. For transfection, HEK293 cells were suspended in Opti-MEM (without phenol red) supplemented with 2% fetal bovine serum (Seradigm) and 100 units/mL penicillin–streptomycin (Gibco) at a final concentration of 220,000 cells/mL and dispensed into white 96-well plates at 90 μL/well. Subsequent transfections and screens were carried using an Agilent Bravo Automated Liquid Handling Platform. First, the 96-well HiBiT DNA arrays were diluted 25-fold in Opti-MEM (without serum or phenol red) to a final concentration of 0.0004 μg/μL and 20 μL of the diluted DNAs were transferred into new 96-well plates. Next, promoterless carrier DNA (1 μg/μL) was diluted 25-fold (0.04 μg/μL) and then dispensed into the diluted arrays at 20 μL/well. Following brief mixing, Viafect transfection reagent (Promega) diluted 16-fold into Opti-MEM was dispensed into the plates at 40 μL/well. After mixing by pipetting, plates were incubated for 10 min on the pipetting station deck. The DNA-transfection reagent complexes were then added to plates containing cells. To facilitate the screen, 10 μL of DNA-transfection reagent complexes were added in duplicates to the top 4 and bottom 4 rows, resulting in two identical 48-well arrays per plate. Plates with transfected cells were incubated for 18–20 h at 37 °C/5% CO2. A screen of each tracer across the entire library using two different concentrations requires duplicate plates of transfected cells. Depending on the number of tracers being screened, transfections can be scaled up using the same ratios. The next day, for each tracer, four 20× screening solutions in tracer dilution buffer (Promega) were prepared: two duplicates at final concentration of 20 μM and two duplicates at a final concentration of 2 μM. A competing unmodified compound was added to one of each duplicate at a final concentration of 400 μM. The four resulting solutions were diluted 4-fold in Opti-MEM without serum or phenol red to generate 5× solutions (5 µM and 0.5 µM tracer +/− 100 μM competing compound). To screen the library, a BioTek MultiFlo FX liquid dispenser was used to dispense 22.5 µL of tracer solution to the top 4 rows and 22.5 µL tracer + competing compound solution to the 4 bottom rows. Plates were briefly mixed on an orbital shaker and incubated for 1.5 h at room temperature. […]

A further assay concerns the target T2, AGTR1 (Homo sapiens, UniProt P30556).
T2 construct: purchased Promega (in-house HiBiT-GPCR construct library, NanoBRET)
T2 sequence (P30556 1-359): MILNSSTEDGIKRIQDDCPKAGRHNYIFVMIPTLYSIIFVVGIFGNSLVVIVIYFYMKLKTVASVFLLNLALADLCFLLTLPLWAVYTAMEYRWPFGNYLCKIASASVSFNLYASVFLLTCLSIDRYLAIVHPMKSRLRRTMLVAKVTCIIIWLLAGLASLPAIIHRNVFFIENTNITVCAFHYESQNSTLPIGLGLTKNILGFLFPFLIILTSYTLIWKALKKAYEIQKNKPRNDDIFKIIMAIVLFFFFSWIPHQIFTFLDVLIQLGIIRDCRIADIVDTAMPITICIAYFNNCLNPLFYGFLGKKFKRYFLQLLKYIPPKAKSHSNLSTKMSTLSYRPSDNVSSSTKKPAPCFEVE
Description: NanoBRET screen HiBiT-AGTR1 in HEK293. The format is binding. The protocol: as §1, §2
(BRET reads energy transfer from a luciferase to a nearby fluorophore.)

T1 sequence (Q14833 33-912): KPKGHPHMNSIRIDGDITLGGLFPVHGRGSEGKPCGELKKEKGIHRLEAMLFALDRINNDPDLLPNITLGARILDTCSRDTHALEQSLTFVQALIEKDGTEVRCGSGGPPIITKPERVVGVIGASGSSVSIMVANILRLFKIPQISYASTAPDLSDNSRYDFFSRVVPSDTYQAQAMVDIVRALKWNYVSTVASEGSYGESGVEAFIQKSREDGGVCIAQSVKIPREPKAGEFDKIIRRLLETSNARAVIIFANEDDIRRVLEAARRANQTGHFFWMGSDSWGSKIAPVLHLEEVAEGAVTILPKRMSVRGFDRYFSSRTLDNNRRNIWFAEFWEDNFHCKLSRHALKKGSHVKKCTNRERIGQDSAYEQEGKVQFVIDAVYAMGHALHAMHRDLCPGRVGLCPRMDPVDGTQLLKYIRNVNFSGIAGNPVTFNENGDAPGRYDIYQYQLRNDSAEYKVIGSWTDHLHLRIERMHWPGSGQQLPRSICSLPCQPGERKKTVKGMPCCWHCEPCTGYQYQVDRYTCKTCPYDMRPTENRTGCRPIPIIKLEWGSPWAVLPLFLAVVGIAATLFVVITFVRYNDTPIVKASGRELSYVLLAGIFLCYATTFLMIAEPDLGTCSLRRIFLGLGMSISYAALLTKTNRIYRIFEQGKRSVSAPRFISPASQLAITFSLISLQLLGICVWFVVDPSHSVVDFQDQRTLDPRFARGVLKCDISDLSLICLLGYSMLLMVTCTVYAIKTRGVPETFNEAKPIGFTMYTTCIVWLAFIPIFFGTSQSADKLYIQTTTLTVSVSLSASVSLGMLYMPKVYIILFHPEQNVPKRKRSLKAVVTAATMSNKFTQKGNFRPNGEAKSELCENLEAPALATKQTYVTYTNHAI

Consider `COc1ccc2c(n1)c(CCNC(C)=O)cn2CCNC(=O)CCc1ccc2n1[B-](F)(F)[N+]1=C(c3ccc[nH]3)C=CC1=C2` [Azamelatonin-1-NB590], for which the “NanoBRET Fold Response” value at GRM4 (0.1μM tracer) is given as 1.09; at GRM4 (1μM tracer), 0.78; at AGTR1 (0.1μM tracer), 0.78; at AGTR1 (1μM tracer), 1.07.
As for `CC(C)N(CC[C@H](c1ccccc1)c1cc(CCNC(=O)c2ccc(CNC(=O)CCc3ccc4n3[B-](F)(F)[N+]3=C(c5ccc[nH]5)C=CC3=C4)cc2)ccc1O)C(C)C` [Tolterodine-BZ-NB590], the “NanoBRET Fold Response” value on GRM4 (GRM4, tracer 0.1μM) is on record as 1.02; at GRM4 (GRM4, tracer 1μM), 0.99; on AGTR1 (AGTR1, tracer 0.1μM), 1.06; at AGTR1 (AGTR1, tracer 1μM), 1.00.
On the same counts, the results for `O=C(CCc1ccc2n1[B-](F)(F)[N+]1=C(c3ccc[nH]3)C=CC1=C2)NCCOCCOCCNC(=O)OCCOCCN1CCN(C2=Nc3ccccc3Sc3ccccc32)CC1` [Quetiapine-a-2-NB590] are 0.99, 0.92, 1.00 and 0.92.
The like results for `Cc1cc2c(s1)Nc1ccccc1N=C2N1CCN(CCCNC(=O)CCOCCOCCOCCOCCNC(=O)CCc2ccc3n2[B-](F)(F)[N+]2=C(c4ccc[nH]4)C=CC2=C3)CC1` [Olanzapine-a-2-NB590] were, in that order, 0.99, 0.93, 0.94 and 0.95.
As to `O=C(CCc1ccc2n1[B-](F)(F)[N+]1=C(c3ccc[nH]3)C=CC1=C2)NCc1ccc(C(=O)NCCOCCOCCNCC(O)COc2cccc3ccccc23)cc1` (stereo not drawn) [Propranolol-3-NB590], the “NanoBRET Fold Response” value on GRM4 (GRM4, 0.1μM) was 1.11; at GRM4 (GRM4, 1μM) it was 1.04; on AGTR1 (AGTR1, 0.1μM), 1.04; on AGTR1 (AGTR1, 1μM) it was 1.07.
With `CN1CCN(C2=Nc3cc(Cl)ccc3N(CC(=O)NCCOCCOCCOCCOCCNC(=O)CCc3ccc4n3[B-](F)(F)[N+]3=C(c5ccc[nH]5)C=CC3=C4)c3ccccc32)CC1` [Clozapine-c-2-NB590], the “NanoBRET Fold Response” value on GRM4 (GRM4, 0.1μM tracer) stood at 0.94; on GRM4 (GRM4, 1μM tracer) it was 1.14; at AGTR1 (AGTR1, 0.1μM tracer), 0.98; on AGTR1 (AGTR1, 1μM tracer) it was 0.93.
Consider `O=C(CCc1ccc2n1[B-](F)(F)[N+]1=C(c3ccc[nH]3)C=CC1=C2)NCc1ccc(C(=O)NCCOCCC(=O)N[C@@H]2CC[C@@]3(O)[C@H]4Cc5ccc(O)c6c5[C@@]3(CCN4CC3CC3)[C@H]2O6)cc1` [Naltrexone-3-NB590], for which the “NanoBRET Fold Response” value on GRM4 (GRM4, tracer 0.1μM) was 0.75; on GRM4 (GRM4, tracer 1μM) it was 1.05; at AGTR1 (AGTR1, tracer 0.1μM) it was 1.07; on AGTR1 (AGTR1, tracer 1μM) it was 0.93.
`CC(C)N(CC[C@H](c1ccccc1)c1cc(CCNC(=O)CCOCCOCCOCCOCCNC(=O)CCc2ccc3n2[B-](F)(F)[N+]2=C(c4ccc[nH]4)C=CC2=C3)ccc1O)C(C)C` [Tolterodine-2-NB590]: the “NanoBRET Fold Response” value stood at 0.97 at GRM4 (GRM4, tracer 0.1μM); 1.14 on GRM4 (GRM4, tracer 1μM); 1.12 at AGTR1 (AGTR1, tracer 0.1μM); 1.00 at AGTR1 (AGTR1, tracer 1μM).
Regarding `Cc1nc2n(c(=O)c1CCN1CCC(c3noc4cc(F)ccc34)CC1)CCCC2OC(=O)NCCOCCOCCOCCOCCNC(=O)CCc1ccc2n1[B-](F)(F)[N+]1=C(c3ccc[nH]3)C=CC1=C2` (stereo not drawn) [Risperidone-2-NB590], the “NanoBRET Fold Response” value was found to be 0.98 on GRM4 (GRM4, tracer 0.1μM); 1.05 at GRM4 (GRM4, tracer 1μM); 0.99 at AGTR1 (AGTR1, tracer 0.1μM); 0.98 at AGTR1 (AGTR1, tracer 1μM).
In the case of `O=C(CCOCCOCCOCCOCCNC(=O)CCc1ccc2n1[B-](F)(F)[N+]1=C(c3ccc[nH]3)C=CC1=C2)NCCCN1CCN(C2=Nc3cc(Cl)ccc3Nc3ccccc32)CC1` [Clozapine-a-2-NB590], the “NanoBRET Fold Response” value is 1.02 on GRM4 (GRM4, 0.1μM tracer); 0.99 on GRM4 (GRM4, 1μM tracer); 0.96 on AGTR1 (AGTR1, 0.1μM tracer); 1.05 at AGTR1 (AGTR1, 1μM tracer).
In the case of `COc1ccc2[nH]c(-c3ccc(CNC(=O)CCOCCOCCOCCOCCNC(=O)CCc4ccc5n4[B-](F)(F)[N+]4=C(c6ccc[nH]6)C=CC4=C5)cc3)c(CCNC(C)=O)c2n1` [AzomelatoninICO9-2-NB590], the “NanoBRET Fold Response” value on GRM4 (0.1μM tracer) came to 0.97; on GRM4 (1μM tracer), 0.85; on AGTR1 (0.1μM tracer) it was 0.91; at AGTR1 (1μM tracer) it was 0.94.
In the case of `CN1CCN(C2=Nc3cc(Cl)ccc3Nc3ccc(CNC(=O)CCOCCOCCOCCOCCNC(=O)CCc4ccc5n4[B-](F)(F)[N+]4=C(c6ccc[nH]6)C=CC4=C5)cc32)CC1` [Clozapine-b-2-NB590], the “NanoBRET Fold Response” value on GRM4 (GRM4, 0.1μM tracer) is on record as 1.05; at GRM4 (GRM4, 1μM tracer), 1.03; on AGTR1 (AGTR1, 0.1μM tracer) it was 1.01; at AGTR1 (AGTR1, 1μM tracer) it was 1.06.
Take `COc1ccccc1N1CCN(CCCCN2C(=O)c3ccc(CNC(=O)CCOCCNC(=O)c4ccc(CNC(=O)CCc5ccc6n5[B-](F)(F)[N+]5=C(c7ccc[nH]7)C=CC5=C6)cc4)cc3C2=O)CC1` [NAN-190-3-NB590]: the “NanoBRET Fold Response” value on GRM4 (GRM4, tracer 0.1μM) was 1.14; at GRM4 (GRM4, tracer 1μM), 1.33; at AGTR1 (AGTR1, tracer 0.1μM), 0.92; at AGTR1 (AGTR1, tracer 1μM) it was 1.04.
The like results for `N#CN=C(NCCCOc1cccc(CN2CCCCC2)c1)NCCNC(=O)CCOCCOCCOCCOCCNC(=O)CCc1ccc2n1[B-](F)(F)[N+]1=C(c3ccc[nH]3)C=CC1=C2` [Aminopotentidine-2-NB590] were, in that order, 1.02, 1.01, 1.00 and 0.96.
For the compound `CN(C)CCC=C1c2ccccc2CCc2ccc(C(=O)NCCNC(=O)CCOCCOCCOCCOCCNC(=O)CCc3ccc4n3[B-](F)(F)[N+]3=C(c5ccc[nH]5)C=CC3=C4)cc21` [Amitriptyline-b-2-NB590], the “NanoBRET Fold Response” value is 0.96 at GRM4 (GRM4, tracer 0.1μM); 0.95 on GRM4 (GRM4, tracer 1μM); 1.12 at AGTR1 (tracer at 0.1μM, listed as amitriptyline-b-2-NB590); 0.81 at AGTR1 (tracer at 1μM, listed as amitriptyline-b-2-NB590).
For `CN(CCC=C1c2ccccc2CCc2ccccc21)C(=O)CCOCCOCCOCCOCCNC(=O)CCc1ccc2n1[B-](F)(F)[N+]1=C(c3ccc[nH]3)C=CC1=C2` [Amitriptyline-e-2-NB590], the “NanoBRET Fold Response” value on AGTR1 (tracer at 1μM) was found to be 1.02.
As to `CN(C)CCC=C1c2ccccc2CCc2ccc(C(=O)NCCNC(=O)CCOCCOCCOCCOCCNC(=O)CCc3ccc4n3[B-](F)(F)[N+]3=C(c5ccc[nH]5)C=CC3=C4)cc21` [Amitriptyline-a-2-NB590], the “NanoBRET Fold Response” value on AGTR1 (tracer at 0.1μM) is recorded as 1.04; at AGTR1 (tracer at 1μM), 1.00.
